Results published in PubChem BioAssay AID2060909 (Molecular Pharmacology Branch, DTP, NCI, 2025).

Tested on: 362531-283-R-J2-PDC complex spheroid viability
Experiment: Anticancer human tumor 362531-283-R-J2-PDC patient-derived colon adenocarcinoma cell line growth inhibition [RAS]
Conditions: for viability, T/C: stronger effect = lower value; active = viability on the fitted dose curve at most 10% of control; inactive = the rest
How it was run: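 Tumour cells grown as complex spheroids with HUVEC endothelial cells and mesenchymal stem cells, treated with RAS pathway inhibitor combinations. Each agent spans half-log steps from near clinical Cmax, or 10 microM where Cmax is unknown.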

[1] = curve of first compound, second compound 0.000949 µM
[2] = curve of first compound, second compound 0.003 µM
[3] = curve of first compound, second compound 0.00949 µM
[4] = curve of first compound, second compound 0.03 µM
[5] = curve of first compound, second compound 0.0949 µM
[6] = curve of first compound, second compound 0.3 µM
[7] = second compound 0.000949 µM, first compound 0.0316 µM
[8] = second compound 0.000949 µM, first compound 0.1 µM
[9] = second compound 0.000949 µM, first compound 0.316 µM
[10] = second compound 0.000949 µM, first compound 1 µM
[11] = second compound 0.000949 µM, first compound 3.16 µM
[12] = second compound 0.000949 µM, first compound 10 µM
[13] = second compound 0.003 µM, first compound 0.0316 µM
[14] = second compound 0.003 µM, first compound 0.1 µM
[15] = second compound 0.003 µM, first compound 0.316 µM
[16] = second compound 0.003 µM, first compound 1 µM
[17] = second compound 0.003 µM, first compound 3.16 µM
[18] = second compound 0.003 µM, first compound 10 µM
[19] = second compound 0.00949 µM, first compound 0.0316 µM
[20] = second compound 0.00949 µM, first compound 0.1 µM
[21] = second compound 0.00949 µM, first compound 0.316 µM
[22] = second compound 0.00949 µM, first compound 1 µM
[23] = second compound 0.00949 µM, first compound 3.16 µM
[24] = second compound 0.00949 µM, first compound 10 µM
[25] = second compound 0.03 µM, first compound 0.0316 µM
[26] = second compound 0.03 µM, first compound 0.1 µM
[27] = second compound 0.03 µM, first compound 0.316 µM
[28] = second compound 0.03 µM, first compound 1 µM
[29] = second compound 0.03 µM, first compound 3.16 µM
[30] = second compound 0.03 µM, first compound 10 µM
[31] = second compound 0.0949 µM, first compound 0.0316 µM
[32] = second compound 0.0949 µM, first compound 0.1 µM
[33] = second compound 0.0949 µM, first compound 0.316 µM
[34] = second compound 0.0949 µM, first compound 1 µM
[35] = second compound 0.0949 µM, first compound 3.16 µM
[36] = second compound 0.0949 µM, first compound 10 µM
[37] = second compound 0.3 µM, first compound 0.0316 µM
[38] = second compound 0.3 µM, first compound 0.1 µM
[39] = second compound 0.3 µM, first compound 0.316 µM
[40] = second compound 0.3 µM, first compound 1 µM
[41] = second compound 0.3 µM, first compound 3.16 µM
[42] = second compound 0.3 µM, first compound 10 µM
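Note: spheroids exposed to the agents for 7 days before readout.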
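Throughout, for viability, T/C: luminescence viability as percent of DMSO vehicle control wells.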

C[C@@H](NC(=O)c1ncnc(N)c1Cl)c1ncc(C(=O)Nc2cc(C(F)(F)F)c(Cl)cn2)s1 + CCn1c(-c2cccnc2C(C)OC)c2c3cc(ccc31)N1CCOC(CC(NC(=O)C(C(C)C)N(C)C(=O)C3(F)CCN(C(=O)C#CC(C)(C)N(C)C)CC3)C(=O)N3CCCC(N3)C(=O)OCC(C)(C)C2)C1
> 10000 nM: IC50 [1] | IC50 [2] | IC50 [3] | IC50 [4] | IC50 [5] | IC50 [6]
inactive: viability, T/C [7] 111% | viability, T/C [8] 107% | viability, T/C [9] 91.5% | viability, T/C [10] 106% | viability, T/C [11] 73.3% | viability, T/C [12] 61.4% | viability, T/C [13] 112% | viability, T/C [14] 94% | viability, T/C [15] 109% | viability, T/C [16] 92.5% | viability, T/C [17] 79.2% | viability, T/C [18] 66% | viability, T/C [19] 105% | viability, T/C [20] 108% | viability, T/C [21] 87.1% | viability, T/C [22] 88.5% | viability, T/C [23] 82.1% | viability, T/C [24] 73.6% | viability, T/C [25] 107% | viability, T/C [26] 99.3% | viability, T/C [27] 105% | viability, T/C [28] 91.7% | viability, T/C [29] 89.7% | viability, T/C [30] 64.9% | viability, T/C [31] 97.9% | viability, T/C [32] 96.1% | viability, T/C [33] 89.5% | viability, T/C [34] 91.4% | viability, T/C [35] 87.7% | viability, T/C [36] 73.9% | viability, T/C [37] 103% | viability, T/C [38] 101% | viability, T/C [39] 85.4% | viability, T/C [40] 87.1% | viability, T/C [41] 91.9% | viability, T/C [42] 80.1%

CC(Nc1ccc2c(c1)OCCn1cc(N3C(=O)OCC3C(F)F)nc1-2)C(N)=O (centres undefined) + C#Cc1c(F)ccc2cc(O)cc(-c3ncc4c(N5CC6CCC(C5)N6)nc(OCC56CCCN5CC(F)C6)nc4c3F)c12
963 nM: IC50 (curve of first compound, second compound 0.1 µM)
119 nM: IC50 (curve of first compound, second compound 3.16 µM)
847 nM: IC50 (curve of first compound, second compound 0.316 µM)
active: viability, T/C (second compound 3.16 µM, first compound 3.16 µM) 7.58% | viability, T/C (second compound 3.16 µM, first compound 10 µM) 4.5% | viability, T/C (second compound 10 µM, first compound 0.316 µM) 6.59% | viability, T/C (second compound 10 µM, first compound 1 µM) 4.96% | viability, T/C (second compound 10 µM, first compound 3.16 µM) 3.74% | viability, T/C (second compound 10 µM, first compound 10 µM) 2.42%
421 nM: IC50 (curve of first compound, second compound 1 µM)
1290 nM: IC50 (curve of first compound, second compound 0.0316 µM)
inactive: viability, T/C (second compound 0.0316 µM, first compound 0.0316 µM) 90.7% | viability, T/C (second compound 0.0316 µM, first compound 0.1 µM) 88.4% | viability, T/C (second compound 0.0316 µM, first compound 0.316 µM) 79% | viability, T/C (second compound 0.0316 µM, first compound 1 µM) 55% | viability, T/C (second compound 0.0316 µM, first compound 3.16 µM) 33.7% | viability, T/C (second compound 0.0316 µM, first compound 10 µM) 31% | viability, T/C (second compound 0.1 µM, first compound 0.0316 µM) 95% | viability, T/C (second compound 0.1 µM, first compound 0.1 µM) 77% | viability, T/C (second compound 0.1 µM, first compound 0.316 µM) 69.9% | viability, T/C (second compound 0.1 µM, first compound 1 µM) 48.6% | viability, T/C (second compound 0.1 µM, first compound 3.16 µM) 34.5% | viability, T/C (second compound 0.1 µM, first compound 10 µM) 28.8% | viability, T/C (second compound 0.316 µM, first compound 0.0316 µM) 103% | viability, T/C (second compound 0.316 µM, first compound 0.1 µM) 81.5% | viability, T/C (second compound 0.316 µM, first compound 0.316 µM) 63.7% | viability, T/C (second compound 0.316 µM, first compound 1 µM) 50.9% | viability, T/C (second compound 0.316 µM, first compound 3.16 µM) 29.7% | viability, T/C (second compound 0.316 µM, first compound 10 µM) 13.8% | viability, T/C (second compound 1 µM, first compound 0.0316 µM) 80.5% | viability, T/C (second compound 1 µM, first compound 0.1 µM) 59.4% | viability, T/C (second compound 1 µM, first compound 0.316 µM) 62.9% | viability, T/C (second compound 1 µM, first compound 1 µM) 34.2% | viability, T/C (second compound 1 µM, first compound 3.16 µM) 25.6% | viability, T/C (second compound 1 µM, first compound 10 µM) 18% | viability, T/C (second compound 3.16 µM, first compound 0.0316 µM) 62% | viability, T/C (second compound 3.16 µM, first compound 0.1 µM) 51.9% | viability, T/C (second compound 3.16 µM, first compound 0.316 µM) 31.4% | viability, T/C (second compound 3.16 µM, first compound 1 µM) 7.66% | viability, T/C (second compound 10 µM, first compound 0.0316 µM) 56.1% | viability, T/C (second compound 10 µM, first compound 0.1 µM) 33%
42.9 nM: IC50 (curve of first compound, second compound 10 µM)

CC(=O)OC12COC1CC(O)C1(C)C(=O)C(O)C3=C(C)C(OC(=O)C(O)C(NC(=O)OC(C)(C)C)c4ccccc4)CC(O)(C(OC(=O)c4ccccc4)C21)C3(C)C (centres undefined) + CCn1c(-c2cccnc2C(C)OC)c2c3cc(ccc31)N1CCOC(CC(NC(=O)C(C(C)C)N(C)C(=O)C3(F)CCN(C(=O)C#CC(C)(C)N(C)C)CC3)C(=O)N3CCCC(N3)C(=O)OCC(C)(C)C2)C1
225 nM: IC50 [3]
inactive: viability, T/C [7] 98.1% | viability, T/C [8] 97.4% | viability, T/C [9] 33.3% | viability, T/C [10] 19.5% | viability, T/C [11] 23.1% | viability, T/C [12] 38.4% | viability, T/C [13] 102% | viability, T/C [14] 94.6% | viability, T/C [15] 34.7% | viability, T/C [16] 16.6% | viability, T/C [17] 24.5% | viability, T/C [18] 38.4% | viability, T/C [19] 101% | viability, T/C [20] 95.4% | viability, T/C [21] 31.1% | viability, T/C [22] 20% | viability, T/C [23] 26% | viability, T/C [24] 36.1% | viability, T/C [25] 93% | viability, T/C [26] 98% | viability, T/C [27] 36.5% | viability, T/C [28] 17.7% | viability, T/C [29] 29.2% | viability, T/C [30] 34.1% | viability, T/C [31] 95.2% | viability, T/C [32] 92.7% | viability, T/C [33] 34.8% | viability, T/C [34] 19% | viability, T/C [35] 24.2% | viability, T/C [36] 31.7% | viability, T/C [37] 105% | viability, T/C [38] 96.6% | viability, T/C [39] 31.9% | viability, T/C [40] 18.9% | viability, T/C [41] 22.5% | viability, T/C [42] 28.3%
234 nM: IC50 [1] | IC50 [5]
235 nM: IC50 [2]
229 nM: IC50 [6]
243 nM: IC50 [4]

C[C@@H](NC(=O)c1ncnc(N)c1Cl)c1ncc(C(=O)Nc2cc(C(F)(F)F)c(Cl)cn2)s1
> 10000 nM: IC50 (curve of compound)
inactive: viability, T/C (compound 0.0316 µM) 97.4% [middle of 4 runs] | viability, T/C (compound 0.1 µM) 102% [middle of 4 runs] | viability, T/C (compound 1 µM) 95.7% [middle of 4 runs] | viability, T/C (compound 3.16 µM) 93.9% [middle of 4 runs] | viability, T/C (compound 10 µM) 75.5% [middle of 4 runs]

Cc1nc(N2CCC3(CC2)COC(C)C3N)c(CO)nc1Sc1ccnc(N)c1Cl (centres undefined)
> 10000 nM: IC50 (curve of compound)
inactive: viability, T/C (compound 0.0316 µM) 101% [middle of 4 runs] | viability, T/C (compound 0.1 µM) 107% [middle of 4 runs] | viability, T/C (compound 0.316 µM) 100% [middle of 4 runs] | viability, T/C (compound 1 µM) 88.8% [middle of 4 runs] | viability, T/C (compound 3.16 µM) 91.8% [middle of 4 runs] | viability, T/C (compound 10 µM) 80% [middle of 4 runs]
